Measurements taken from patent US10364245B2 (CHIESI FARMACEUTICI S.p.A., priority 2017, dated 2019).
Structures can show the parent of a compound that is named as a salt.

molecular target: T1, p38 alpha (Homo sapiens, UniProt Q16539); experiment: P38 alpha enzyme inhibition assay (Alphascreen kinase activity assay); type: biochemical; details: 100 pM p38 alpha, 2 hours preincubation at 25° C., 250 μM ATP, ATF-2 fusion protein; read-out: p38α inhibition
T1 construct: purchased Invitrogen PV3304
Description: P38 Alpha Enzyme Inhibition Assay
The inhibitory activity of compounds was determined using an Alphascreen® (Perkin Elmer) based kinase activity assay. Kinase reactions consisted of 25 mM HEPES pH 7.5, 10 mM MgCl2, 100 μM Na3VO4, 2 mM DTT, 0.05 mg/ml Tween 20, 100 pM p38 alpha (Invitrogen, PV3304), 1% DMSO and 0.3 μg/ml ATF-2 fusion protein (New England Biolabs, 9224). Compounds were incubated under these conditions for 2 hours, at 25° C., prior to the initiation of the kinase activity by the addition of the 250 μM ATP. Reaction volumes were 20 μL. After 1 hr at 25° C. reactions were stopped by the adding 10 μL of 25 mM HEPES pH 7.5 containing 62.5 mM EDTA, 0.05% Triton X-100, 10% BSA and 0.83 ng/uL anti-phospho-ATF2 antibody (Abcam, ab28812). Detection was performed by measuring luminescence following the addition of Alphascreen Donor beads (Perkin Elmer 6765300) and Protein A Alphascreen Acceptor beads (Perkin Elmer 6760137), both at a final concentration of 20 ug/ml. IC50 values were determined from concentration-response curves.

T1 sequence (Q16539 whole entry, the tested form may be a part): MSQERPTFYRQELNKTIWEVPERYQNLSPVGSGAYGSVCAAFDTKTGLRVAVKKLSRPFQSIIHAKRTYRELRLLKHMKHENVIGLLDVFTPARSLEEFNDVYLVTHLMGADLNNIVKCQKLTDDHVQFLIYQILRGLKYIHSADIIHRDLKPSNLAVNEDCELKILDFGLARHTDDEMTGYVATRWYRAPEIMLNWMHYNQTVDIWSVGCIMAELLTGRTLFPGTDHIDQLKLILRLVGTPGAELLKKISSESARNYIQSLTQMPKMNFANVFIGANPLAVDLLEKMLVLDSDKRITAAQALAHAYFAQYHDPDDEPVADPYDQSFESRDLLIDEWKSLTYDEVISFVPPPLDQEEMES

Structure (SMILES) | IC50 [nM]
COCC(C)(C)c1nnc2ccc(O[C@@H]3CC[C@H](NC(=O)Nc4cc(C(C)(C)C)nc(C(=O)NCC5(N(C)C)CCCCC5)n4)c4ccccc43)cn12 [Example 153, 4-(tert-butyl)-N-((1-(dimethylamino)cyclohexyl)methyl)-6-(3-((1S,4R)-4-((3-(1-methoxy-2-methylpropan-2-yl)-[1,2,4]triazolo[4,3-a]pyridin-6-yl)oxy)-1,2,3,4-tetrahydronaphthalen-1-yl)ureido)pyrimidine-2-carboxamide] | 1 to 10
COC(C)(C)c1nnc2ccc(O[C@@H]3CC[C@H](NC(=O)Nc4cc(C(C)(C)C)nc(C(=O)NCC(C)(C)N5CCN(C)CC5)n4)c4ccccc43)cn12 [Example 157, 4-(tert-butyl)-6-(3-((1S,4R)-4-((3-(2-methoxypropan-2-yl)-[1,2,4]triazolo[4,3-a]pyridin-6-yl)oxy)-1,2,3,4-tetrahydronaphthalen-1-yl)ureido)-N-(2-methyl-2-(4-methylpiperazin-1-yl)propyl)pyrimidine-2-carboxamide] | 1 to 10
CN(C)CCNC(=O)c1nc(NC(=O)N[C@H]2CC[C@@H](Oc3ccc4nnc(C(C)(C)N5CCN(C)CC5)n4c3)c3ccccc32)cc(C(C)(C)C)n1 [Example 22, 4-(tert-Butyl)-N-(2-(dimethylamino)ethyl)-6-(3-((1S,4R)-4-((3-(2-(4-methylpiperazin-1-yl)propan-2-yl)-[1,2,4]triazolo[4,3-a]pyridin-6-yl)oxy)-1,2,3,4-tetrahydronaphthalen-1-yl)ureido)pyrimidine-2-carboxamide] | 1 to 10
CC(C)(C)c1cc(NC(=O)N[C@H]2CC[C@@H](Oc3ccc4nnc(C(C)(C)C)n4c3)c3ccccc32)nc(COCCN2CCOCC2)n1 [Example 63, 1-(6-(tert-Butyl)-2-((2-morpholinoethoxy)methyl)pyrimidin-4-yl)-3-((1S,4R)-4-((3-(tert-butyl)-[1,2,4]triazolo[4,3-a]pyridin-6-yl)oxy)-1,2,3,4-tetrahydronaphthalen-1-yl)urea] | 1 to 10
COC1CCN(CCNC(=O)c2cc(NC(=O)N[C@H]3CC[C@@H](Oc4ccc5nnc(C(C)(C)C)n5c4)c4ccccc43)cc(C(C)(C)C)n2)CC1 [Example 203, 6-(tert-butyl)-4-(3-((1S,4R)-4-((3-(tert-butyl)-[1,2,4]triazolo[4,3-a]pyridin-6-yl)oxy)-1,2,3,4-tetrahydronaphthalen-1-yl)ureido)-N-(2-(4-methoxypiperidin-1-yl)ethyl)picolinamide] | 1 to 10
CN(C)C1(CNC(=O)c2nc(NC(=O)N[C@H]3CC[C@@H](Oc4ccc5nnc(C(C)(C)C)n5c4)c4ccccc43)cc(C(C)(C)C)n2)CCCCC1 [Example 161, 4-(tert-butyl)-6-(3-((1S,4R)-4-((3-(tert-butyl)-[1,2,4]-triazolo[4,3-a]pyridin-6-yl)oxy)-1,2,3,4-tetrahydronaphthalen-1-yl)ureido)-N-((1-(dimethylamino)-cyclohexyl)methyl)pyrimidine-2-carboxamide] | 1 to 10
CN1CCN(Cc2nc(NC(=O)N[C@H]3CC[C@@H](Oc4ccc5nnc(C(C)(C)C)n5c4)c4ccccc43)cc(C(C)(C)C)n2)C(=O)C1 [Example 135, 1-(6-(tert-Butyl)-2-((4-methyl-2-oxopiperazin-1-yl)methyl)pyrimidin-4-yl)-3-((1S,4R)-4-((3-(tert-butyl)-[1,2,4]triazolo[4,3-a]pyridin-6-yl)oxy)-1,2,3,4-tetrahydronaphthalen-1-yl)urea formate salt] | 1 to 10
COCCN(C)C(C)(C)CNC(=O)c1nc(NC(=O)N[C@H]2CC[C@@H](Oc3ccc4nnc(C(C)(C)OC)n4c3)c3ccccc32)cc(C(C)(C)C)n1 [Example 179, 4-(tert-butyl)-N-(2-((2-methoxyethyl)(methyl)amino)-2-methylmpropyl)-6-(3-((1S,4R)-4-((3-(2-methoxypropan-2-yl)-[1,2,4]triazolo[4,3-a]pyridin-6-yl)oxy)-1,2,3,4-tetrahydronaphthalen-1-yl)ureido)pyrimidine-2-carboxamide] | 1 to 10
CSc1nc(NC(=O)N[C@H]2CC[C@@H](Oc3ccc4nnc([C@@H]5CCCN5C)n4c3)c3ccccc32)cc(C(C)(C)C)n1 [Example 48] | 1 to 10

Second part, the molecule after the results:

IC50 [nM] | Structure (SMILES)
1 to 10 | COCCN(C)C(C)(C)CNC(=O)c1nc(NC(=O)N[C@H]2CC[C@@H](Oc3ccc4nnc(C(C)(C)C)n4c3)c3ccccc32)cc(C(C)(C)C)n1 [Example 177, 4-(tert-butyl)-6-(3-((1S,4R)-4-((3-(tert-butyl)-[1,2,4]triazolo[4,3-a]pyridin-6-yl)oxy)-1,2,3,4-tetrahydronaphthalen-1-yl)ureido)-N-(2-((2-methoxyethyl)(methyl)-amino)-2-methylpropyl)pyrimidine-2-carboxamide]
1 to 10 | COCCN(C)CCNC(=O)c1nc(NC(=O)N[C@H]2CC[C@@H](Oc3ccc4nnc([C@H](C)OC)n4c3)c3ccccc32)cc(C(C)(C)C)n1 [Example 106, 4-(tert-butyl)-N-(2-((2-methoxyethyl)(methyl)amino)ethyl)-6-(3-((1S,4R)-4-((3-((S)-1-methoxyethyl)-[1,2,4]triazolo[4,3-a]pyridin-6-yl)oxy)-1,2,3,4-tetrahydronaphthalen-1-yl)ureido)pyrimidine-2-carboxamide]
1 to 10 | COC(C)(C)c1nnc2ccc(O[C@@H]3CC[C@H](NC(=O)Nc4cc(C(C)(C)C)nc(C(=O)NCC(C)(C)N(C)C)n4)c4ccccc43)cn12 [Example 141, 4-(tert-butyl)-N-(2-(dimethylamino)-2-mcthylpropyl)-6-(3-((1S,4R)-4-((3-(2-methoxypropan-2-yl)-[1,2,4]triazolo[4,3-a]pyridin-6-yl)oxy)-1,2,3,4-tetrahydronaphthalen-1-yl)ureido)pyrimidine-2-carboxamide]
1 to 10 | CC(C)(C)c1cc(NC(=O)N[C@H]2CC[C@@H](Oc3ccc4nnc(C(C)(C)C)n4c3)c3ccccc32)nc(C(=O)N2CCN(CCO)CC2)n1 [Example 116, 1-(6-(tert-butyl)-2-(4-(2-hydroxyethyl)piperazine-1-carbonyl)pyrimidin-4-yl)-3-((1S,4R)-4-((3-(tert-butyl)-[1,2,4]triazolo[4,3-a]pyridin-6-yl)oxy)-1,2,3,4-tetrahydronaphthalen-1-yl)urea]
1 to 10 | CCN(C)C(C)(C)CNC(=O)c1nc(NC(=O)N[C@H]2CC[C@@H](Oc3ccc4nnc(C(C)(C)OC)n4c3)c3ccccc32)cc(C(C)(C)C)n1 [Example 156, 4-(tert-butyl)-N-(2-(ethyl(methyl)amino)-2-methylpropyl)-6-(3-((1S,4R)-4-((3-(2-methoxypropan-2-yl)-[1,2,4]triazolo[4,3-a]pyridin-6-yl)oxy)-1,2,3,4-tetrahydronaphthalen-1-yl)ureido)pyrimidine-2-carboxamide]
1 to 10 | CN1CCCN(C(=O)c2nc(NC(=O)N[C@H]3CC[C@@H](Oc4ccc5nnc(C(C)(C)C)n5c4)c4ccccc43)cc(C(C)(C)C)n2)CC1 [Example 133, 1-(6-(tert-butyl)-2-(4-methyl-1,4-diazepane-1-carbonyl)pyrimidin-4-yl)-3-((1S,4R)-4-((3-(tert-butyl)-[1,2,4]triazolo[4,3-a]pyridin-6-yl)oxy)-1,2,3,4-tetrahydronaphthalen-1-yl)urea]
1 to 10 | CN(C)CCN(C)C(=O)c1nc(NC(=O)N[C@H]2CC[C@@H](Oc3ccc4nnc(C(C)(C)C)n4c3)c3ccccc32)cc(C(C)(C)C)n1 [Example 115, 4-(tert-butyl)-6-(3-((1S,4R)-4-((3-(tert-butyl)-[1,2,4]triazolo[4,3-a]pyridin-6-yl)oxy)-1,2,3,4-tetrahydronaphthalen-1-yl)ureido)-N-(2-(dimethylamino)ethyl)-N-methylpyrimidine-2-carboxamide]
1 to 10 | CCN(C)C(C)(C)CNC(=O)c1nc(NC(=O)N[C@H]2CC[C@@H](Oc3ccc4nnc(C(C)(C)C)n4c3)c3ccccc32)cc(C(C)(C)C)n1 [Example 148, 4-(tert-butyl)-6-(3-((1S,4R)-4-((3-(tert-butyl)-[1,2,4]triazolo[4,3-a]pyridin-6-yl)oxy)-1,2,3,4-tetrahydronaphthalen-1-yl)ureido)-N-(2-(ethyl(methyl)amino)-2-methylpropyl)pyrimidine-2-carboxamide]
1 to 10 | CCc1nc(NC(=O)N[C@H]2CC[C@@H](Oc3ccc4nnc([C@]5(C)CCCN5C)n4c3)c3ccccc32)cc(C(C)(C)C)n1 [Example 41, 1-(6-(tert-Butyl)-2-ethylpyrimidin-4-yl)-3-((1S,4R)-4-((3-((S)-1,2-dimethylpyrrolidin-2-yl)-[1,2,4]triazolo[4,3-a]pyridin-6-yl)oxy)-1,2,3,4-tetrahydronaphthalen-1-yl)urea]
1 to 10 | COC(C)(C)c1nnc2ccc(O[C@@H]3CC[C@H](NC(=O)Nc4cc(C(=O)NCC(C)(C)N(C)C)nc(C(C)(C)C)c4)c4ccccc43)cn12 [Example 194, 6-(tert-butyl)-N-(2-(dimethylamino)-2-methylpropyl)-4-(3-((1S,4R)-4-((3-(2-methoxypropan-2-yl)-[1,2,4]triazolo[4,3-a]pyridin-6-yl)oxy)-1,2,3,4-tetrahydronaphthalen-1-yl)ureido)picolinamide]
